Molecular target: T1, human PAH with the R408W mutation (Homo sapiens, UniProt P00439, R408W)
T1 construct: expressed in transfected cells
T1 sequence (P00439 1-452 R408W): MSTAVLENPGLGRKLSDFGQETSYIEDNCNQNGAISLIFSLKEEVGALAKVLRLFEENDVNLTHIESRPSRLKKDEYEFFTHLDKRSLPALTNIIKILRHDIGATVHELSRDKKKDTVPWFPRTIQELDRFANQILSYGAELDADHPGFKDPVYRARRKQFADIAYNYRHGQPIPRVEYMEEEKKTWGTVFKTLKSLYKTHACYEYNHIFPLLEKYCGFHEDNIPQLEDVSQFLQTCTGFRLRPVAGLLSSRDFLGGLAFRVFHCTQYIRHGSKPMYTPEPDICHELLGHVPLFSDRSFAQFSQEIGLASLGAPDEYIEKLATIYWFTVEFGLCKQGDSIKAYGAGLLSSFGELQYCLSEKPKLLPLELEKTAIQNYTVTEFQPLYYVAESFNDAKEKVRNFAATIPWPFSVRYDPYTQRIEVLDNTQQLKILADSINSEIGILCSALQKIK
Assay: Cell Based Phenylalanine Flux Assay
Settings: A375 cells expressing human R408W PAH; 24 hrs compound incubation; 13C-Tyrosine by LC-MS; average where tested multiple times; read-out: AC50

Row | SMILES | AC50 [nM]
1 | CN(C)c1ccc2c(C(=O)N3CCc4[nH]cnc4[C@H]3c3cc4ccccc4cn3)cnn2c1 [Example 470, (R)-(6-(dimethylamino)pyrazolo[1,5-a]pyridin-3-yl)(4-(isoquinolin-3-yl)-6,7-dihydro-1H-imidazo[4,5-c]pyridin-5(4H)-yl)methanone] | < 500
2 | O=C(c1nnc(-c2ccncn2)o1)N1CCc2[nH]cnc2[C@H]1c1cc2ccccc2cn1 [Example 471, (R)-(4-(isoquinolin-3-yl)-6,7-dihydro-1H-imidazo[4,5-c]pyridin-5(4H)-yl)(5-(pyrimidin-4-yl)-1,3,4-oxadiazol-2-yl)methanone] | < 500
3 | Cc1cc(-c2nnc(C(=O)N3CCc4[nH]cnc4[C@H]3c3cc4ccccc4cn3)o2)nn1C [Example 472, (R)-(5-(1,5-dimethyl-1H-pyrazol-3-yl)-1,3,4-oxadiazol-2-yl)(4-(isoquinolin-3-yl)-6,7-dihydro-1H-imidazo[4,5-c]pyridin-5(4H)-yl)methanone] | < 500
4 | O=C(c1nnc(-c2ncccn2)o1)N1CCc2[nH]cnc2[C@H]1c1cc2ccccc2cn1 [Example 473, (R)-(4-(isoquinolin-3-yl)-6,7-dihydro-1H-imidazo[4,5-c]pyridin-5(4H)-yl)(5-(pyrimidin-2-yl)-1,3,4-oxadiazol-2-yl)methanone] | < 500
5 | O=C(c1cnn2cc(N3CCC(F)CC3)ccc12)N1CCc2[nH]cnc2[C@H]1c1cc2ccccc2cn1 [Example 474, (R)-(6-(4-fluoropiperidin-1-yl)pyrazolo[1,5-a]pyridin-3-yl)(4-(isoquinolin-3-yl)-6,7-dihydro-1H-imidazo[4,5-c]pyridin-5(4H)-yl)methanone] | 1000 to 5000
6 | O=C(c1cnn2cc(-c3cccnc3)ccc12)N1CCc2[nH]cnc2[C@H]1c1cc2ccccc2cn1 [Example 475, (R)-(4-(isoquinolin-3-yl)-6,7-dihydro-1H-imidazo[4,5-c]pyridin-5(4H)-yl)(6-(pyridin-3-yl)pyrazolo[1,5-a]pyridin-3-yl)methanone] | < 500
7 | O=C(c1cnn2cc(-c3ccncn3)ccc12)N1CCc2[nH]cnc2[C@H]1c1cc2ccccc2cn1 [Example 476, (R)-(4-(isoquinolin-3-yl)-6,7-dihydro-1H-imidazo[4,5-c]pyridin-5(4H)-yl)(6-(pyrimidin-4-yl)pyrazolo[1,5-a]pyridin-3-yl)methanone] | < 500
8 | O=C(c1cnn2cc(-c3cnccn3)ccc12)N1CCc2[nH]cnc2[C@H]1c1cc2ccccc2cn1 [Example 477, (R)-(4-(isoquinolin-3-yl)-6,7-dihydro-1H-imidazo[4,5-c]pyridin-5(4H)-yl)(6-(pyrazin-2-yl)pyrazolo[1,5-a]pyridin-3-yl)methanone] | < 500
9 | O=C(c1cnn2cc(N3CCC(O)CC3)ccc12)N1CCc2[nH]cnc2[C@H]1c1cc2ccccc2cn1 [Example 478, (R)-(6-(4-hydroxypiperidin-1-yl)pyrazolo[1,5-a]pyridin-3-yl)(4-(isoquinolin-3-yl)-6,7-dihydro-1H-imidazo[4,5-c]pyridin-5(4H)-yl)methanone] | 500 to 1000
10 | Cc1cccc(-c2ccc3c(C(=O)N4CCc5[nH]cnc5[C@H]4c4cc5ccccc5cn4)cnn3c2)n1 [Example 479, (R)-(4-(isoquinolin-3-yl)-6,7-dihydro-1H-imidazo[4,5-c]pyridin-5(4H)-yl)(6-(6-methylpyridin-2-yl)pyrazolo[1,5-a]pyridin-3-yl)methanone] | < 500
11 | Cc1ncccc1-c1ccc2c(C(=O)N3CCc4[nH]cnc4[C@H]3c3cc4ccccc4cn3)cnn2c1 [Example 480, (R)-(4-(isoquinolin-3-yl)-6,7-dihydro-1H-imidazo[4,5-c]pyridin-5(4H)-yl)(6-(2-methylpyridin-3-yl)pyrazolo[1,5-a]pyridin-3-yl)methanone] | < 500
12 | Cn1ccc(-c2ccc3c(C(=O)N4CCc5[nH]cnc5[C@H]4c4cc5ccccc5cn4)cnn3c2)n1 [Example 481, (R)-(4-(isoquinolin-3-yl)-6,7-dihydro-1H-imidazo[4,5-c]pyridin-5(4H)-yl)(6-(1-methyl-1H-pyrazol-3-yl)pyrazolo[1,5-a]pyridin-3-yl)methanone] | < 500
13 | O=C(c1cnn2cc(-c3ncccc3F)ccc12)N1CCc2[nH]cnc2[C@H]1c1cc2ccccc2cn1 [Example 482, (R)-(6-(3-fluoropyridin-2-yl)pyrazolo[1,5-a]pyridin-3-yl)(4-(isoquinolin-3-yl)-6,7-dihydro-1H-imidazo[4,5-c]pyridin-5(4H)-yl)methanone] | < 500
14 | O=C(c1cnn2cc(-c3ncccn3)ccc12)N1CCc2[nH]cnc2[C@H]1c1cc2ccccc2cn1 [Example 483, (R)-(4-(isoquinolin-3-yl)-6,7-dihydro-1H-imidazo[4,5-c]pyridin-5(4H)-yl)(6-(pyrimidin-2-yl)pyrazolo[1,5-a]pyridin-3-yl)methanone] | < 500
15 | O=C(c1cnn2cc(CN3CCOCC3)ccc12)N1CCc2[nH]cnc2[C@H]1c1cc2ccccc2cn1 [Example 484, (R)-(4-(isoquinolin-3-yl)-6,7-dihydro-1H-imidazo[4,5-c]pyridin-5(4H)-yl)(6-(morpholinomethyl)pyrazolo[1,5-a]pyridin-3-yl)methanone] | < 500
16 | O=C(c1cnn2cc(-c3ccccc3)ccc12)N1CCc2[nH]cnc2[C@H]1c1cc2ccccc2cn1 [Example 485, (R)-(4-(isoquinolin-3-yl)-6,7-dihydro-1H-imidazo[4,5-c]pyridin-5(4H)-yl)(6-phenylpyrazolo[1,5-a]pyridin-3-yl)methanone] | < 500
17 | O=C(c1cnn2cc(-c3ccncc3)ccc12)N1CCc2[nH]cnc2[C@H]1c1cc2ccccc2cn1 [Example 486, (R)-(4-(isoquinolin-3-yl)-6,7-dihydro-1H-imidazo[4,5-c]pyridin-5(4H)-yl)(6-(pyridin-4-yl)pyrazolo[1,5-a]pyridin-3-yl)methanone] | < 500
18 | O=C(c1cnn2cc(-c3cncnc3)ccc12)N1CCc2[nH]cnc2[C@H]1c1cc2ccccc2cn1 [Example 487, (R)-(4-(isoquinolin-3-yl)-6,7-dihydro-1H-imidazo[4,5-c]pyridin-5(4H)-yl)(6-(pyrimidin-5-yl)pyrazolo[1,5-a]pyridin-3-yl)methanone] | < 500
19 | CN1CCN(Cc2ccc3c(C(=O)N4CCc5[nH]cnc5[C@H]4c4cc5ccccc5cn4)cnn3c2)CC1 [Example 488, (R)-(4-(isoquinolin-3-yl)-6,7-dihydro-1H-imidazo[4,5-c]pyridin-5(4H)-yl)(6-((4-methylpiperazin-1-yl)methyl)pyrazolo[1,5-a]pyridin-3-yl)methanone] | < 500
20 | O=C(c1cnn2cc(N3CCCC3)ccc12)N1CCc2[nH]cnc2[C@H]1c1cc2ccccc2cn1 [Example 489, (R)-(4-(isoquinolin-3-yl)-6,7-dihydro-1H-imidazo[4,5-c]pyridin-5(4H)-yl)(6-(pyrrolidin-1-yl)pyrazolo[1,5-a]pyridin-3-yl)methanone] | < 500
21 | Cc1nnc(C(=O)N2CC3(CC3)c3[nH]cnc3[C@H]2c2cc3ccccc3cn2)o1 [Example 490, (R)-(4′-(isoquinolin-3-yl)spiro[cyclopropane-1,7′-imidazo[4,5-c]pyridin]-5′(1′H,4′H,6′H)-yl)(5-methyl-1,3,4-oxadiazol-2-yl)methanone] | < 500
22 | Cc1ncoc1C(=O)N1CC2(CC2)c2[nH]cnc2[C@@H]1c1cc2ccccc2cn1 [Example 492, (S)-(4′-(isoquinolin-3-yl)spiro[cyclopropane-1,7′-imidazo[4,5-c]pyridin]-5′(1′H,4′H,6′H)-yl)(4-methyloxazol-5-yl)methanone] | > 5000
23 | Cc1ncoc1C(=O)N1CC2(CC2)c2[nH]cnc2[C@H]1c1cc2ccccc2cn1 [Example 493, (R)-(4′-(isoquinolin-3-yl)spiro[cyclopropane-1,7′-imidazo[4,5-c]pyridin]-5′(1′H,4′H,6′H)-yl)(4-methyloxazol-5-yl)methanone] | < 500
24 | C[C@@H]1CN(C(=O)c2nnc(-c3ccc(F)cn3)o2)[C@H](c2cc3ccccc3cn2)c2nc[nH]c21 [Example 494, (5-(5-fluoropyridin-2-yl)-1,3,4-oxadiazol-2-yl)((4R,7R)-4-(isoquinolin-3-yl)-7-methyl-6,7-dihydro-1H-imidazo[4,5-c]pyridin-5(4H)-yl)methanone] | 1000 to 5000
25 | C[C@H]1CN(C(=O)c2nnc(-c3ccc(F)cn3)o2)[C@H](c2cc3ccccc3cn2)c2nc[nH]c21 [Example 496, (5-(5-fluoropyridin-2-yl)-1,3,4-oxadiazol-2-yl)((4R,7S)-4-(isoquinolin-3-yl)-7-methyl-6,7-dihydro-1H-imidazo[4,5-c]pyridin-5(4H)-yl)methanone] | 1000 to 5000
26 | C[C@H]1CN(C(=O)c2nnc(-c3ccc(F)cn3)o2)[C@@H](c2cc3ccccc3cn2)c2nc[nH]c21 [Example 497, (5-(5-fluoropyridin-2-yl)-1,3,4-oxadiazol-2-yl)((4S,7S)-4-(isoquinolin-3-yl)-7-methyl-6,7-dihydro-1H-imidazo[4,5-c]pyridin-5(4H)-yl)methanone] | 1000 to 5000
27 | C[C@H]1CN(C(=O)c2nnc(C(C)(C)F)o2)[C@@H](c2cc3ccccc3cn2)c2nc[nH]c21 [Example 498, (5-(2-fluoropropan-2-yl)-1,3,4-oxadiazol-2-yl)((4S,7S)-4-(isoquinolin-3-yl)-7-methyl-6,7-dihydro-1H-imidazo[4,5-c]pyridin-5(4H)-yl)methanone] | 1000 to 5000

Reference: patent US20250262201A1, “COMPOUNDS AND METHODS USEFUL FOR STABILIZING PHENYLALANINE HYDROXYLASE MUTATIONS” (Agios Pharmaceuticals, Inc., priority 2022, published 2025)
